The subject of assay [1] is C3H heart allografts in BALB/c mice presensitized with C3H skin grafts. The assay can be described thus: Accelerated rejection in presensitized heart transplantation model, allograft survival (Example 4). Format: in vivo, mouse. As to conditions: BB5.1 40 mg/kg i.p. daily from day -1, cyclosporin A 15 mg/kg s.c. daily, cyclophosphamide 40 mg/kg i.v. days 0 and 1. The text has this:
In these experiments, the presensitization was brought about by prior transplantation of a skin graft. In general, presensitization can occur not only as a result of having received an earlier allograft, but can also be caused by having received multiple blood transfusions or in women who have been pregnant. Besides such presensitization methods, allografts with an ABO mismatch will be rapidly attacked and rejected because of preformed antibodies to the ABO antigens unless steps are taken to prevent such an attack.
(§1) This model is designed to mimic presensitized transplantation in humans, especially in relation to accelerated humoral rejection. Recipient mice were split into eight groups of six to eight mice each. The treatments were as follow.
Group 3″ (BB5.1 alone)—mice were administered the anti-mouse complement monoclonal antibody BB5.1 at a dose of 40 mg/kg body weight delivered intraperitoneally on a daily basis beginning at day −1 and continuing until the endpoint.
Group 4″ (cyclophosphamide alone)—mice were administered cyclophosphamide intravenously at a dose of 40 mg/kg body weight on each of days 0 and 1.
Group 6″ (BB5.1 plus cyclophosphamide)—mice were administered BB5.1 intraperitoneally at a dose of 40 mg/kg body weight on a daily basis beginning at day −1 and continuing until the endpoint. […]

The subject of assay [2] is heart allografts in presensitized mouse recipients. The assay can be described thus: Immunoperoxidase staining of heart allografts. Format: in vivo. On the set-up: key to C3 immunoperoxidase staining grade / C5 immunoperoxidase staining grade / CD4 immunoperoxidase staining grade / CD8 immunoperoxidase staining grade / Mac-1 immunoperoxidase staining grade / IgG immunoperoxidase staining grade / IgM immunoperoxidase staining grade: 0, negative; 1+, equivocal; 2+, weak; 3+, moderate; 4+, intense. The text has this: Four micrometer sections were cut from tissue samples embedded in Tissue-Tek O.C.T gel (Optimum Cutting Temperature, Skura Finetek, Torrance, Calif.) mounted on gelatin-coated glass microscope slides and stained by a standard indirect avidin-biotin immunoperoxidase staining method using an Elite Vectastain ABC kit (Vector Laboratories Inc., Burlingame, Calif.). Specimens were stained for CD4^+ and CD8^+ cells with biotin-conjugated rat anti-mouse CD4 mAb (clone YTS 191.1.2, Cedarlane Laboratories Ltd., Hornby, Ontario, Canada) and biotin-conjugated rat anti-mouse CD8 mAb (clone 53-6.7, Pharmingen, Franklin Lakes, N.J.), respectively. Intragraft monocyte/macrophage infiltration was detected by staining with biotin-conjugated rat anti-mouse Mac-1 mAb (Cedarlane Laboratories Ltd., Hornby, Ontario, Canada). Mouse IgG and IgM deposition in grafts was detected using biotin-conjugated goat anti-mouse-IgG and goat anti-mouse-IgM (Cedarlane). For identification of complement deposition, sections were serially incubated with goat anti-C3 or anti-C5 polyclonal Abs (Quidel, San Diego, Calif.), biotinylated rabbit anti-goat IgG (Vector Laboratories), and HRP-conjugated-streptavidin (Zymed Laboratories, South San Francisco, Calif.). Slides were washed with phosphate-buffered saline between steps, and examined under light microscopy. Negative controls were performed by omitting the primary antibodies. The immunostaining was scored in five high-power fields of each section, and five independent experiments were performed. The sections of immunoperoxidase staining were graded from 0 to 4+ according to the staining intensity: 0, negative; 1+, equivocal; 2+, weak staining; 3+, moderate staining; and 4+, very intensive staining.

Assay [3] has as its system C3H heart allografts in presensitized BALB/c recipients. The assay can be described thus: Heart allograft survival in presensitized recipients (Examples 1-2). To be noted: C3H heart in skin-presensitized BALB/c; mean±SD; CsA 15 mg/kg/day s.c., CyP 40 mg/kg/day i.v. day 0 and 1, anti-C5 mAb 40 mg/kg/day i.p. Format: in vivo, mouse. The text has this: Rejection was defined as complete necrosis of the skin grafts.
(§2) However, the inhibitory effect of functionally blocking terminal complement cascade at the C5 level in highly sensitized recipients is unknown.

The test system is the same in assay [4]. The assay can be described thus: Graft histology (H&E), presensitized model (Examples 1-2). Format: in vivo, mouse. As to conditions: at rejection or POD100.
Source text: (§3) Tissue samples were fixed in 10% buffered formaldehyde. Specimens were then embedded in paraffin, and sectioned for H&E staining. The microscopic sections were examined in a blinded fashion for severity of rejection by a pathologist. Criteria for graft rejection included the presence of vasculitis, thrombosis, hemorrhage and lymphocyte infiltration. These changes were scored as: 0, no change; 1, minimum change; 2, mild change; 3, moderate change; or 4, marked change.
as §2

In assay [5] the test system is C3H heart allografts in BALB/c mice presensitized with C3H skin grafts. The assay can be described thus: Histological changes of heart allografts at necropsy (Example 4). Format: in vivo, mouse. To be noted: endpoint, 0 normal to 4 marked change.
Source text: as §3, §1

The test system of assay [6] is terminal complement activity. The assay can be described thus: Complement hemolytic assay of recipient sera. Format: in vivo, mouse. To be noted: presensitized heart recipients, POD3. The method, then: The purified anti-C5 mAb was serially diluted twofold (175-0.1 μg/ml) in GVB^2+ buffer (gelatin Veronal-buffered saline: 0.1% gelatin, 141 mM NaCl, 0.5 mM MgCl2, 0.15 mM CaCl2), and 1.8 mM sodium barbital) and added in triplicate (50 μl/well) to a 96-well plate. BALB/c mouse serum was diluted to 40% v/v with GVB^2+ buffer and added […] to the rows of the same 96-well plate such that the final concentration of BALB/c mouse serum in each well was 20%. The plate was then incubated at room temperature for approximately 30 min while chicken erythrocytes were prepared. Chicken erythrocytes were washed 5×1 ml with GVB^2+ buffer and resuspended to a final concentration of 5×10^7/ml in GVB^2+. Four milliliters of the chicken erythrocytes were sensitized by adding anti-chicken RBC polyclonal antibody (Intercell Technologies, Hopewell, N.J., 0.1% v/v) and the cells were incubated at 4° C. for 15 min with frequent vortexing. The cells were then washed 2×1 ml with GVB^2+ and resuspended to a final volume of 2.4 ml in GVB^2+. […] The plate was read at OD 415 nm using a microplate reader and the percentage of hemolysis was determined using this formula: […]
In the current study, terminal complement activity was measured by assessing the ability of recipient mouse sera to lyse antibody presensitized chicken erythrocytes and was compared at the same time-point (POD3).

The test system of assay [7] is anti-donor specific IgG and IgM antibodies. The assay can be described thus: Flow cytometry of circulating anti-donor antibodies. Format: in vivo, mouse. To be noted: presensitized recipients, POD3. The method, then:
The circulating anti-donor specific IgG and IgM antibodies were evaluated in the recipient serum by FACScan flow cytometry (Becton Dickinson, Mountain View, Calif.). Glotz et al., (1993); Tyan et al. (1994). Briefly, C3H mouse splenocytes were isolated and incubated at 37° C. for 30 minutes with serum from naive control and experimental groups. To stain for total IgG, IgG1, IgG2a, IgG2b and IgM, the cells were washed and incubated with FITC-conjugated goat antibody specific for the Fc portion of mouse IgG or with phycoerythrin-conjugated goat antibody specific for the μ-chain of mouse IgM (Jackson ImmunoResearch Laboratories, West Grove, Pa.), or with FITC-conjugated goat anti-mouse IgG1 (CALTAG Laboratories, Burlingame, Calif.), or with FITC-conjugated goat anti-mouse IgG2a (CALTAG), or with FITC-conjugated goat anti-mouse IgG2b (CALTAG). After 1 hour of staining at 4° C., the cells were washed with PBS, resuspended at 5×10^6/mL, and analyzed by flow cytometry for mean channel fluorescence intensity, which represents the antibody-binding reactivity.

Assay [8] has as its system cardiac allograft in presensitized rats. To be noted: cited from earlier work.

As for `O=P1(N(CCCl)CCCl)NCCCO1` (centres unmarked) [Cyclophosphamide, cyclophosphamide], the “Mean survival time” value in assay [1] is reported as 3.3 ± 0.5 days. For the same molecule, the “intragraft Mac-1+ cell infiltration (monocytes and macrophages)” value in assay [2] is recorded as “moderate”. Besides, in assay [2] (necropsy POD3), the “C3 immunoperoxidase staining grade” value is reported as 3+, the “C5 immunoperoxidase staining grade” value is 3+, the “CD4 immunoperoxidase staining grade” value is reported as 1+ and the “CD8 immunoperoxidase staining grade” value is recorded as 1+. Further, in assay [2] (necropsy POD3), the “IgG immunoperoxidase staining grade” value was 3+, the “IgM immunoperoxidase staining grade” value is on record as 1+ and the “Mac-1 immunoperoxidase staining grade” value is 3+. The “heart graft survival (grafts were rejected in)” value in assay [3] came to 3.3 ± 0.5 days. Besides, the “graft histology (pathological features)” value in assay [4] is recorded as “typical pathological features of ACHR”. In addition, in assay [5], the “Hemo (hemorrhage) median histological score” value was determined as 2.0, the “Infar (infarction) median histological score” value is 4.0, the “Lymph (lymphocyte infiltration) median histological score” value was found to be 0.0 and the “Throm (thrombosis) median histological score” value came to 3.0. Moreover, the “Vasc (vasculitis) median histological score” value in assay [5] was determined as 2.0. The “terminal complement activity (lysis of antibody presensitized chicken erythrocytes by recipient sera)” value in assay [6] was “had no effect”. For the same molecule, the “circulating anti-donor IgG levels” value in assay [7] was “partially down-regulated”.
Take “sCR1: soluble complement receptor 1; binds complements C3b and C4b”: the “time before graft rejection” value in assay [8] (Pruitt and Bollinger (1991), similar presensitized rat allograft model, sCR1 alone) is “increased time before graft rejection”. The “average time at which grafts were rejected” value in assay [8] (presensitized rats, cyclosporin A 10 mg/kg/day i.m. from two days prior to transplant, sCR1 single i.v. bolus 15 mg/kg before reperfusion) is reported as 44 days.

(Values after patent US20190309053A1, “PROLONGATION OF SURVIVAL OF AN ALLOGRAFT BY INHIBITING COMPLEMENT ACTIVITY” (Alexion Pharmaceuticals, Inc., priority 2004, published 2019).)
